pIC50: −log10 of the molar value. Like-named read-outs stand apart in the source and are kept apart here.
Columns and labels:
Assay type in all cases: cell-based
MFE296 cells = test: CellTiter-Glo cell viability
Procedure: (§1) Cells were plated in 384-well plates (typically 1,500 cells per well) with varying concentrations of compounds, with a total volume of 50 μl per well. CTG reagent was added (25 μl) to the solutions, mixed and read out using an EnVision 2105 multimode plate reader.

DU145 cells = test: CellTiter-Glo cell viability
Procedure: as §1

[1] = CellTiter-Glo cell viability; details: human, read-out: mean_norm (normalized viability)
Procedure: as §1

## CC[C@@H]1C(=O)N(C)c2cnc(Nc3ccc(C(=O)NCCOCCOCCOCCOCCC(=O)N4CCC(Nc5cccc6c5cc(C#CCNc5ccc(S(C)(=O)=O)cc5OC)n6CC(F)(F)F)CC4)cc3OC)nc2N1C1CCCC1 [p53-01, PMV6-PEG4-BI2536]
MFE296 cells
  p5301_AUC_to_10uM: 0.5186
MFE296 cells; Concentration 39.0625, 4 day
  mean_norm (normalized viability): 1.0133
MFE296 cells; Concentration 78.125, 4 day
  mean_norm (normalized viability): 1.079
MFE296 cells; Concentration 156.25, 4 day
  mean_norm (normalized viability): 1.012
MFE296 cells; Concentration 312.5, 4 day
  mean_norm (normalized viability): 1.043
MFE296 cells; Concentration 625, 4 day
  mean_norm (normalized viability): 0.9978
MFE296 cells; Concentration 1250, 4 day
  mean_norm (normalized viability): 0.7559
MFE296 cells; Concentration 2500, 4 day
  mean_norm (normalized viability): 0.6581
MFE296 cells; Concentration 5000, 4 day
  mean_norm (normalized viability): 0.4955
MFE296 cells; Concentration 10000, 4 day
  mean_norm (normalized viability): 0.246
MFE296 cells; Homo sapiens, MFE-296, 96 h, 4 day treatment
  pIC50: 5.36
DU145 cells
  p5301_AUC_to_10uM: 0.9088
DU145 cells; Homo sapiens, DU-145, 96 h, 4 day treatment
  pIC50: < 4.70
[1]; DU145 cells, Concentration 39.0625, 4 day
  viability at 4 day: 104%
[1]; DU145 cells, Concentration 78.125, 4 day
  viability at 4 day: 101%
[1]; DU145 cells, Concentration 156.25, 4 day
  viability at 4 day: 97.4%
[1]; DU145 cells, Concentration 312.5, 4 day
  viability at 4 day: 96.2%
[1]; DU145 cells, Concentration 625, 4 day
  viability at 4 day: 97.2%
[1]; DU145 cells, Concentration 1250, 4 day
  viability at 4 day: 98.7%
[1]; DU145 cells, Concentration 2500, 4 day
  viability at 4 day: 98.2%
[1]; DU145 cells, Concentration 5000, 4 day
  viability at 4 day: 91.3%
[1]; DU145 cells, Concentration 10000, 4 day
  viability at 4 day: 79.5%
[1]; DU145 cells, Concentration 20000, 4 day
  viability at 4 day: 76.4%
[1]; Huh7 cells, Concentration 39.0625, 4 day
  viability at 4 day: 110%
[1]; Huh7 cells, Concentration 78.125, 4 day
  viability at 4 day: 104%
[1]; Huh7 cells, Concentration 156.25, 4 day
  viability at 4 day: 109%
[1]; Huh7 cells, Concentration 312.5, 4 day
  viability at 4 day: 104%
[1]; Huh7 cells, Concentration 625, 4 day
  viability at 4 day: 108%
[1]; Huh7 cells, Concentration 1250, 4 day
  viability at 4 day: 104%
[1]; Huh7 cells, Concentration 2500, 4 day
  viability at 4 day: 107%
[1]; Huh7 cells, Concentration 5000, 4 day
  viability at 4 day: 100%
[1]; Huh7 cells, Concentration 10000, 4 day
  viability at 4 day: 102%
[1]; Huh7 cells, Concentration 20000, 4 day
  viability at 4 day: 83.1%
[1]; LNCaP cells, LNCAP, Concentration 39.0625, 4 day
  viability at 4 day: 96.3%
[1]; LNCaP cells, LNCAP, Concentration 78.125, 4 day
  viability at 4 day: 93%
[1]; LNCaP cells, LNCAP, Concentration 156.25, 4 day
  viability at 4 day: 94.9%
[1]; LNCaP cells, LNCAP, Concentration 312.5, 4 day
  viability at 4 day: 97.9%
[1]; LNCaP cells, LNCAP, Concentration 625, 4 day
  viability at 4 day: 108%
[1]; LNCaP cells, LNCAP, Concentration 1250, 4 day
  viability at 4 day: 102%
[1]; LNCaP cells, LNCAP, Concentration 2500, 4 day
  viability at 4 day: 87.3%
[1]; MCF7 cells, Concentration 1250, 4 day
  viability at 4 day: 88.6%
[1]; MCF7 cells, Concentration 2500, 4 day
  viability at 4 day: 64.8%
[1]; MCF7 cells, Concentration 5000, 4 day
  viability at 4 day: 49.8%
[1]; MCF7 cells, Concentration 10000, 4 day
  viability at 4 day: 36.9%
[1]; MCF7 cells, Concentration 20000, 4 day
  viability at 4 day: 29.2%
[1]; NUGC-3 cells, NUGC3, Concentration 39.0625, 4 day
  viability at 4 day: 101%
[1]; NUGC-3 cells, NUGC3, Concentration 78.125, 4 day
  viability at 4 day: 98%
[1]; NUGC-3 cells, NUGC3, Concentration 156.25, 4 day
  viability at 4 day: 103%
[1]; NUGC-3 cells, NUGC3, Concentration 312.5, 4 day
  viability at 4 day: 98.2%
[1]; NUGC-3 cells, NUGC3, Concentration 625, 4 day
  viability at 4 day: 91.1%
[1]; NUGC-3 cells, NUGC3, Concentration 1250, 4 day
  viability at 4 day: 79.9%
[1]; NUGC-3 cells, NUGC3, Concentration 2500, 4 day
  viability at 4 day: 53.4%
[1]; NUGC-3 cells, NUGC3, Concentration 5000, 4 day
  viability at 4 day: 42.5%
[1]; NUGC-3 cells, NUGC3, Concentration 10000, 4 day
  viability at 4 day: 39.3%
[1]; NUGC-3 cells, NUGC3, Concentration 20000, 4 day
  viability at 4 day: 32.6%

Source: PMC13128454, “Mutant p53 protein accumulation is selectively targetable by proximity-inducing drugs” (Nature Chemical Biology, 2025)
